“Also recorded” adds a separate entry of the source. Like-named read-outs stand apart in the source and are kept apart here.
How the values were obtained:
[1] = system: synaptic benzodiazepine-sensitive receptors (BZR), GABAAR; assay: 3H-flunitrazepam binding, rat brain homogenate; settings: for BZR % (percent inhibition): at 10,000 nM; for Ki: read-out: BZR (Ki)
[2] = molecular target: µ opioid receptor (MOR) (Homo sapiens, UniProt P35372); assay: Radioligand competition binding, MOR ([3H]-DAMGO), HEK293 cell homogenates; settings: [3H]-DAMGO; for MOR % (percent inhibition): at 10,000 nM; for inhibition at 10 µM: read-out: MOR % (percent inhibition), at 10,000 nM
[3] = molecular target: δ opioid receptor (DOR) (Homo sapiens, UniProt P41143); assay: Radioligand competition binding, DOR ([3H]-DADLE), HEK293 cell homogenates; settings: for DOR % (percent inhibition): at 10,000 nM; for inhibition at 10 µM: read-out: DOR % (percent inhibition), at 10,000 nM
[4] = molecular target: κ opioid receptor (KOR) (Homo sapiens, UniProt P41145); assay: Radioligand competition binding, KOR ([3H]-U69593), HEK293 cell homogenates; settings: for KOR % (percent inhibition): at 10,000 nM; for KOR % (percent inhibition) / inhibition at 10 µM: [3H]-U69593; for inhibition at 10 µM: read-out: KOR % (percent inhibition), at 10,000 nM
[5] = read-out: KOR (Ki), [3H]-U69593, HEK293 homogenates

Structure (SMILES) | BZR % (percent inhibition) [1] [%] | Ki [1] [nM] | MOR % (percent inhibition) [2] [%] | DOR % (percent inhibition) [3] [%] | KOR % (percent inhibition) [4] [%] | Ki [4, 5] [nM] | inhibition at 10 µM [2] [%] | inhibition at 10 µM [3] [%] | Ki [4] [nM] | inhibition at 10 µM [4] [%] | Affinity towards KOR as % of the GL-I-30-KOR binding affinity [4] [%] | KOR affinity (in words) ([4]; screening at 10,000 nM)
C#Cc1ccc2c(c1)C(c1ccccc1F)=N[C@H](C)c1c(-c3cnco3)ncn1-2 [GL-III-73] | 65 | 602 | 12 | 4 | 74 | 449 |  |  |  |  |  | 
Brc1ccc2c(c1)C(c1ccccn1)=NCc1c(-c3cnco3)ncn1-2 [KRM-II-97] | 93 | 140 |  |  |  |  | 18 | 8 | 1960 | 62 |  | 
C#Cc1ccc2c(c1)C(c1ccccn1)=NCc1c(C(=O)OC)ncn1-2 [MP-III-024] | 81 | 277 |  |  |  |  | 0 | 24 |  | 43 |  | 
Cc1noc(-c2ncn3c2[C@@H](C)N=C(c2ccccc2F)c2cc(Br)ccc2-3)n1 [GL-III-60] | 100 | 784 | 26 | 18 | 87 | 232 |  |  |  |  |  | 
C#Cc1ccc2c(c1)C(c1ccccn1)=NCc1c(-c3cnco3)ncn1-2 [KRM-III-67] | 71 | 144 |  |  |  |  | 30 | 3 |  | 48 |  | 
C#Cc1ccc2c(c1)C(c1ccccc1F)=N[C@H](C)c1c(C(=O)NC(C)C)ncn1-2 [GL-III-66] | 88 | 271 |  |  |  |  | 0 | 0 | 233 | 63 |  | 
C[C@H]1N=C(c2ccccc2F)c2cc(Cl)ccc2-n2cnc(C(=O)O)c21 [GL-III-54] | 100 | 42 |  |  |  |  | 0 | 0 |  | 22 |  | 
C#Cc1ccc2c(c1)C(c1ccccn1)=NCc1c(-c3ocnc3C)ncn1-2 [KRM-III-79] | 81 | 308 |  |  |  |  | 32 | 1 |  | 9 |  | 
C[C@H]1N=C(c2ccccc2F)c2cc(Br)ccc2-n2cnc(C(=O)N(C)C)c21 [GL-III-69] | 100 | 446 |  |  |  |  | 0 | 10 | 511 | 75 |  | 
C#Cc1ccc2c(c1)C(c1ccccn1)=NCc1c(C(=O)OC(C)C)ncn1-2 [MP-II-068] | 97 | 42 |  |  |  |  | 0 | 34 | 550 | 85 | 4.9 | 
CCOC(=O)c1ncn2c1[C@@H](C)N=C(c1ccccc1F)c1cc(Br)ccc1-2 [SH-I-047] | 84 | 238 | 16 |  |  |  |  | 0 |  | 82 |  | 
C#Cc1ccc2c(c1)C(c1ccccc1F)=N[C@H](C)c1c(C(=O)NCC)ncn1-2 [GL-II-74] | 84 | 68 |  |  |  |  | 10 | 0 | 194 | 86 |  | 
C#Cc1ccc2c(c1)C(c1ccccc1F)=N[C@@H](C)c1c(C(=O)OCC)ncn1-2 [SH-053-2′F-S-CH3] | 92 | 111 |  |  |  |  | 7 | 36 | 90 | 93 |  | 
C#Cc1ccc2c(c1)C(c1ccccc1F)=N[C@H](C)c1c(C(=O)N3CCCC3)ncn1-2 [GL-II-76] | 43 |  |  |  |  |  | 0 | 0 | 371 | 80 |  | 
C#Cc1ccc2c(c1)C(c1ccccc1F)=N[C@@H](C)c1c(C(=O)NC(C)(C)C)ncn1-2 [GL-I-41] | 90 | 140 |  |  |  |  | 40 | 10 | 39 | 97 |  | 
Brc1ccc2c(c1)C(c1ccccc1)=NCc1c(-c3cnco3)ncn1-2 [KRM-II-73] | 97 | 45 |  |  |  |  | 11 | 32 | 736 | 83 |  | 
C#Cc1ccc2c(c1)C(c1ccccc1F)=NCc1c(C(=O)OCc3ccccc3)ncn1-2 [MP-II-075] | 98 | 21 |  |  |  | 547 | 0 | 16 |  | 84 |  | 
C[C@H]1N=C(c2ccccc2F)c2cc(Br)ccc2-n2cnc(-c3cnco3)c21 [GL-III-36] | 86 | 319 | 0 | 12 | 88 | 246 |  |  |  |  |  | 
C#Cc1ccc2c(c1)C(c1ccccn1)=N[C@H](C)c1c(C(=O)O)ncn1-2 [GL-II-30] | 65 | 431 |  |  |  |  | 20 | 4 |  | 0 |  | 
C#Cc1ccc2c(c1)C(c1ccccc1F)=N[C@H](C)c1c(C(=O)OC)ncn1-2 [MP-III-004] | 78 | 445 |  |  |  |  | 0 | 24 | 599 | 76 |  | 
C[C@H]1N=C(c2ccccc2F)c2cc(Br)ccc2-n2cnc(C(=O)O)c21 [GL-II-93] | 73 | 86 |  |  |  |  | 0 | 0 |  | 0 |  | No KOR affinity; also recorded: insignificant KOR affinity
C#Cc1ccc2c(c1)C(c1ccccc1F)=N[C@H](C)c1c(C(=O)NC)ncn1-2 [MP-III-022] | 95 | 83 |  |  |  |  | 3 | 22 |  | 80 |  | 
C[C@H]1N=C(c2ccccc2F)c2cc(C3CC3)ccc2-n2cnc(C(=O)N(C)C)c21 [GL-III-70] | 100 | 3400 |  |  |  |  | 0 | 50 | 800 | 68 |  | 
C#Cc1ccc2c(c1)C(c1ccccn1)=NCc1c(-c3nc(C)no3)ncn1-2 [MP-III-085] | 82 | 357 |  |  |  |  | 0 | 0 |  | 40 |  | 
C#Cc1ccc2c(c1)C(c1ccccc1F)=N[C@@H](C)c1c(C(=O)NCC)ncn1-2 [GL-I-43] | 94 | 44 |  |  |  |  | 22 | 3 | 102 | 95 |  | 
C#Cc1ccc2c(c1)C(c1ccccc1F)=N[C@H](C)c1c(C(N)=O)ncn1-2 [MP-III-019.B] | 94 | 54 |  |  |  |  | 2 | 0 | 1530 | 62 |  | 
Cc1ncoc1-c1ncn2c1CN=C(c1ccccc1F)c1cc(Br)ccc1-2 [KRM-III-59] | 96 | 20 |  |  |  |  | 0 | 11 | 408 | 73 |  | 
